Several values for one entry are separate records, joined by “and”; a condition that tells them apart may be missing. Equal values may be shown once. Read-outs that look alike come from different tables or passages of the source.
Legend:
Assay type in all cases: cell-based
EP4 WT = molecular target: T1, EP4 WT (Homo sapiens, UniProt P35408); assay: GloSensor cAMP assay, antagonism of PGE2-induced cAMP; details: for remaining activity at 100 µM / remaining activity at […] / remaining activity at 0.1585 µM / remaining activity at 0.03236 µM / remaining activity at 0.006457 µM / remaining activity at 0.001288 µM: 1 h
T1 construct: The full-length EP2 or EP4 was cloned into the pcDNA3.1 vector; FLAG (N); expressed in transfected cells; host or cells: AD293 cells
T1 sequence (P35408 whole entry): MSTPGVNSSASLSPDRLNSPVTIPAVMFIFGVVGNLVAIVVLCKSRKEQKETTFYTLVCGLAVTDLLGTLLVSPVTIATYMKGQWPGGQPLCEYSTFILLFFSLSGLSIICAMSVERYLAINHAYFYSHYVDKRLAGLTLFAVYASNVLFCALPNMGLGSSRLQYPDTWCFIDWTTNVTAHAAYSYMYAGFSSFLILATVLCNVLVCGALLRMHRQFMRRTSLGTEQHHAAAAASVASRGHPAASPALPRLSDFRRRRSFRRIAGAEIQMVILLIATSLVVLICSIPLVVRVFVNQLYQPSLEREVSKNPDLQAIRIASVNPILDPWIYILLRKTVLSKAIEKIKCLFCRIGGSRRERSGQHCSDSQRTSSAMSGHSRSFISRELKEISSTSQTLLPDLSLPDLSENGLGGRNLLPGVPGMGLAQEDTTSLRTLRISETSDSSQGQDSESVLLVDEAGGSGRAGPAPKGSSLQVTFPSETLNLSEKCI
Method: (§1) The full-length EP2 or EP4 was cloned into the pcDNA3.1 vector (Invitrogen), incorporating an N-terminal FLAG tag. AD293 cells were seeded in six-well plates containing DMEM supplemented with 10% dialyzed FBS 1 day prior to transfection. Following overnight growth, cells were transfected with a 1:1 ratio of receptor construct and GloSensor22F cAMP biosensor (Promega) plasmids.
(§2) Twenty-four hours post-transfection, the cells were transferred to CO2-independent media containing 2% GloSensor cAMP Reagent (Promega) and distributed into 384-well assay plates at a density of 4000 cells per well in 10 μL. […] The plates were then incubated at 37 °C for an additional hour before luminescence measurements were taken using an EnVision plate reader.
(§3) Data analysis was performed using GraphPad Prism software v8.0.1. A nonlinear regression analysis, employing a sigmoidal dose–response model, was conducted to determine the Emax values and half-maximum inhibitory concentrations (IC50) for each compound tested.

[1] = molecular target: T2, constitutively active EP2 S308A (Homo sapiens, UniProt P43116, S308A); assay: GloSensor cAMP assay, inhibition of constitutive activity
T2 construct: The full-length EP2 or EP4 was cloned into the pcDNA3.1 vector; FLAG (N); expressed in transfected cells; host or cells: AD293 cells
T2 sequence (P43116 whole entry S308A): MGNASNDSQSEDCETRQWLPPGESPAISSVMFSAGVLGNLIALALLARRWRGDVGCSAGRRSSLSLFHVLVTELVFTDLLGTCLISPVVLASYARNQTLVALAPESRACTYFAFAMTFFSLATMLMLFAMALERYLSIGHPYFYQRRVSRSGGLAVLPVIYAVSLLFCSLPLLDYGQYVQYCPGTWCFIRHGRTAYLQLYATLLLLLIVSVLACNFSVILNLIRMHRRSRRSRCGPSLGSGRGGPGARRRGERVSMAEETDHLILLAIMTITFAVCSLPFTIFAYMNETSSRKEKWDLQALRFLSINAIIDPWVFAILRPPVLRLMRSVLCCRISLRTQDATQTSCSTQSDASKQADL
Method: as §1, §2, §3

[2] = molecular target: T3, constitutively active EP4 V72A (Homo sapiens, UniProt P35408, V72A); assay: as above
T3 construct: The full-length EP2 or EP4 was cloned into the pcDNA3.1 vector (Invitrogen), incorporating an N-terminal FLAG tag; expressed in transfected cells; host or cells: AD293
T3 sequence (P35408 whole entry V72A): as the sequence (P35408 whole entry) above, with V72A counted along it
Method: as §1, §2, §3

[3] = molecular target: T4, constitutively active EP4 S319A (Homo sapiens, UniProt P35408, S319A); assay: as above
T4 construct: The full-length EP2 or EP4 was cloned into the pcDNA3.1 vector (Invitrogen), incorporating an N-terminal FLAG tag; expressed in transfected cells; host or cells: AD293
T4 sequence (P35408 whole entry S319A): as the sequence (P35408 whole entry) above, with S319A counted along it
Method: as §1, §2, §3

[4] = molecular target: T5, constitutively active EP2 S305A (Homo sapiens, UniProt P43116, S305A); assay: as above
T5 construct: The full-length EP2 or EP4 was cloned into the pcDNA3.1 vector; FLAG (N); expressed in transfected cells; host or cells: AD293 cells
T5 sequence (P43116 whole entry S305A): as the sequence (P43116 whole entry S308A) above, with S305A, A308S counted along it
Method: as §1, §2, §3

[5] = molecular target: T6, constitutively active EP2 WT (Homo sapiens, UniProt P43116); assay: as above
T6 construct: The full-length EP2 or EP4 was cloned into the pcDNA3.1 vector; FLAG (N); expressed in transfected cells; host or cells: AD293 cells
T6 sequence (P43116 whole entry): as the sequence (P43116 whole entry S308A) above, with A308S counted along it
Method: as §1, §2, §3

[6] = molecular target: T7, constitutively active EP2 S86A (Homo sapiens, UniProt P43116, S86A); assay: as above
T7 construct: The full-length EP2 or EP4 was cloned into the pcDNA3.1 vector; FLAG (N); expressed in transfected cells; host or cells: AD293 cells
T7 sequence (P43116 whole entry S86A): as the sequence (P43116 whole entry S308A) above, with S86A, A308S counted along it
Method: as §1, §2, §3

[7] = no PGE2, pIC50 mutant - pIC50 WT, mean

CCc1nnc(NS(=O)(=O)c2ccc(NC(=S)NC(=O)/C=C/c3ccc(F)cc3)cc2)s1 [TG6-129]
remaining activity at 100 µM (EP4 WT; TG6-129 log([M]) -4.00, read-out: % cAMP activity (normalized to WT)): 15.1% | remaining activity at […] (EP4 WT; TG6-129 log([M]) -4.70, read-out: % cAMP activity (normalized to WT)): 25.9% | remaining activity at […] (EP4 WT; TG6-129 log([M]) -5.40, read-out: % cAMP activity (normalized to WT)): 86.4% | remaining activity at […] (EP4 WT; TG6-129 log([M]) -6.10, read-out: % cAMP activity (normalized to WT)): 94.7% | remaining activity at 0.1585 µM (EP4 WT; TG6-129 log([M]) -6.80, read-out: % cAMP activity (normalized to WT)): 90.5% | remaining activity at 0.03236 µM (EP4 WT; TG6-129 log([M]) -7.49, read-out: % cAMP activity (normalized to WT)): 87.9% | remaining activity at 0.006457 µM (EP4 WT; TG6-129 log([M]) -8.19, read-out: % cAMP activity (normalized to WT)): 104% | remaining activity at 0.001288 µM (EP4 WT; TG6-129 log([M]) -8.89, read-out: % cAMP activity (normalized to WT)): 109% | remaining activity at 100 µM (EP4 WT; read-out: % cAMP activity EP4 (normalized to Grapiprant), ligand log([M]) -4.00, single experiments 1st-3rd, Fig. S1A): 15.1% | remaining activity at […] (EP4 WT; read-out: % cAMP activity EP4 (normalized to Grapiprant), ligand log([M]) -4.70, single experiments 1st-3rd, Fig. S1A): 25.9% | remaining activity at […] (EP4 WT; read-out: % cAMP activity EP4 (normalized to Grapiprant), ligand log([M]) -5.40, single experiments 1st-3rd, Fig. S1A): 86.4% | remaining activity at […] (EP4 WT; read-out: % cAMP activity EP4 (normalized to Grapiprant), ligand log([M]) -6.10, single experiments 1st-3rd, Fig. S1A): 94.7% | remaining activity at 0.1585 µM (EP4 WT; read-out: % cAMP activity EP4 (normalized to Grapiprant), ligand log([M]) -6.80, single experiments 1st-3rd, Fig. S1A): 90.5% | remaining activity at 0.03236 µM (EP4 WT; read-out: % cAMP activity EP4 (normalized to Grapiprant), ligand log([M]) -7.49, single experiments 1st-3rd, Fig. S1A): 87.9% | remaining activity at 0.006457 µM (EP4 WT; read-out: % cAMP activity EP4 (normalized to Grapiprant), ligand log([M]) -8.19, single experiments 1st-3rd, Fig. S1A): 104% | remaining activity at 0.001288 µM (EP4 WT; read-out: % cAMP activity EP4 (normalized to Grapiprant), ligand log([M]) -8.89, single experiments 1st-3rd, Fig. S1A): 109% | cAMP activity (∆pIC50 from EP4 WT) (EP4 WT; TG6-129, WT, single experiments 1st-3rd): 0.138 and 0.074 and -0.140 | IC50 [1]: 58.9 nM | remaining activity at 0.0001 µM ([1]; 1 h, TG6-129 log([M]) -10, EP2-S308A, read-out: % cAMP activity (normalized to WT)): 87.7% | TG6-129 cAMP activity (∆pIC50 from EP2 WT), Mean ([1]; S308A, Mean): 0.246 | IC50 [2]: 18600 nM | remaining activity at 100 µM ([2]; 1 h, TG6-129 log([M]) -4.00, EP4-V72A, read-out: % cAMP activity (normalized to WT)): 9.67% | remaining activity at […] ([2]; 1 h, TG6-129 log([M]) -4.70, EP4-V72A, read-out: % cAMP activity (normalized to WT)): 26.1% | remaining activity at […] ([2]; 1 h, TG6-129 log([M]) -5.40, EP4-V72A, read-out: % cAMP activity (normalized to WT)): 41.3% | remaining activity at […] ([2]; 1 h, TG6-129 log([M]) -6.10, EP4-V72A, read-out: % cAMP activity (normalized to WT)): 40.6% | remaining activity at 0.1585 µM ([2]; 1 h, TG6-129 log([M]) -6.80, EP4-V72A, read-out: % cAMP activity (normalized to WT)): 44.9% | remaining activity at 0.03236 µM ([2]; 1 h, TG6-129 log([M]) -7.49, EP4-V72A, read-out: % cAMP activity (normalized to WT)): 51.4% | remaining activity at 0.006457 µM ([2]; 1 h, TG6-129 log([M]) -8.19, EP4-V72A, read-out: % cAMP activity (normalized to WT)): 46.4% | remaining activity at 0.001288 µM ([2]; 1 h, TG6-129 log([M]) -8.89, EP4-V72A, read-out: % cAMP activity (normalized to WT)): 40.4% | TG6-129 cAMP activity (∆pIC50 from EP4 WT), Mean ([2]; V72A, Mean): -0.480 | TG6-129 cAMP activity (∆pIC50 from EP4 WT) ([2]; V72A, single experiments 1st-3rd): -0.475 and -0.451 and -0.514 | ΔpIC50 [2, 7]: -0.48 ± 0.02 | IC50 [3]: 20000 nM | remaining activity at 100 µM ([3]; 1 h, TG6-129 log([M]) -4.00, EP4-S319A, read-out: % cAMP activity (normalized to WT)): 6.8% | remaining activity at […] ([3]; 1 h, TG6-129 log([M]) -4.70, EP4-S319A, read-out: % cAMP activity (normalized to WT)): 46.6% | remaining activity at 0.006457 µM ([3]; 1 h, TG6-129 log([M]) -8.19, EP4-S319A, read-out: % cAMP activity (normalized to WT)): 114% | remaining activity at 0.001288 µM ([3]; 1 h, TG6-129 log([M]) -8.89, EP4-S319A, read-out: % cAMP activity (normalized to WT)): 108% | TG6-129 cAMP activity (∆pIC50 from EP4 WT), Mean ([3]; S319A, Mean): -0.460 | TG6-129 cAMP activity (∆pIC50 from EP4 WT) ([3]; S319A, single experiments 1st-3rd): -0.435 and -0.502 and -0.443 | ΔpIC50 [3, 7]: -0.46 ± 0.02 | IC50 [4]: 50.1 nM | TG6-129 cAMP activity (∆pIC50 from EP2 WT), Mean ([4]; S305A, Mean): 0.384 | ΔpIC50 [4, 7]: 0.38 ± 0.10 | IC50 [5]: 87.1 nM | remaining activity at 10 µM ([5]; 1 h, TG6-129 log([M]) -5, EP2-WT, read-out: % cAMP activity (normalized to WT)): 3.2% | remaining activity at 1 µM ([5]; 1 h, TG6-129 log([M]) -6, EP2-WT, read-out: % cAMP activity (normalized to WT)): 6.32% | remaining activity at 0.1 µM ([5]; 1 h, TG6-129 log([M]) -7, EP2-WT, read-out: % cAMP activity (normalized to WT)): 34.4% | remaining activity at 0.001 µM ([5]; 1 h, TG6-129 log([M]) -9, EP2-WT, read-out: % cAMP activity (normalized to WT)): 94.3% | remaining activity at 0.0001 µM ([5]; 1 h, TG6-129 log([M]) -10, EP2-WT, read-out: % cAMP activity (normalized to WT)): 104% | remaining activity at 10 pM ([5]; 1 h, TG6-129 log([M]) -11, EP2-WT, read-out: % cAMP activity (normalized to WT)): 100% | remaining activity at 1 pM ([5]; 1 h, TG6-129 log([M]) -12, EP2-WT, read-out: % cAMP activity (normalized to WT)): 88.6% | TG6-129 cAMP activity (∆pIC50 from EP2 WT) ([5]; WT, single experiments 1st-3rd): -0.062 and 0.053 and 0.096 | IC50 [6]: 603 nM | TG6-129 cAMP activity (∆pIC50 from EP2 WT), Mean ([6]; S86A, Mean): -0.670

— publication PMC12669672, “Structural insights into selective and dual antagonism of EP2 and EP4 prostaglandin receptors” (The EMBO Journal, 2025)
